Source: PMC10534724, “Interaction of ALK Inhibitors with Polyspecific Organic Cation Transporters and the Impact of Substrate-Dependent Inhibition on the Prediction of Drug–Drug Interactions” (Pharmaceutics, 2023)
Like-named read-outs stand apart in the source and are kept apart here.

Legend:
[1] = molecular target: T1, hOCT1 (Homo sapiens, UniProt O15245); test: Inhibition of hOCT1-mediated substrate uptake in transfected HEK293 cells; assay type: in vitro ADME; conditions: for substrate dependency, hOCT1: more potent with metformin than with MPP+: IC50 ratio MPP+/metformin; for substrate dependency, hOCT1: more potent with metformin than with mIBG: IC50 ratio mIBG/metformin; for In vivo DDI study recommendation, hOCT1: FDA-recommended criteria
T1 construct: expressed in transfected cells
T1 sequence (O15245 1-554): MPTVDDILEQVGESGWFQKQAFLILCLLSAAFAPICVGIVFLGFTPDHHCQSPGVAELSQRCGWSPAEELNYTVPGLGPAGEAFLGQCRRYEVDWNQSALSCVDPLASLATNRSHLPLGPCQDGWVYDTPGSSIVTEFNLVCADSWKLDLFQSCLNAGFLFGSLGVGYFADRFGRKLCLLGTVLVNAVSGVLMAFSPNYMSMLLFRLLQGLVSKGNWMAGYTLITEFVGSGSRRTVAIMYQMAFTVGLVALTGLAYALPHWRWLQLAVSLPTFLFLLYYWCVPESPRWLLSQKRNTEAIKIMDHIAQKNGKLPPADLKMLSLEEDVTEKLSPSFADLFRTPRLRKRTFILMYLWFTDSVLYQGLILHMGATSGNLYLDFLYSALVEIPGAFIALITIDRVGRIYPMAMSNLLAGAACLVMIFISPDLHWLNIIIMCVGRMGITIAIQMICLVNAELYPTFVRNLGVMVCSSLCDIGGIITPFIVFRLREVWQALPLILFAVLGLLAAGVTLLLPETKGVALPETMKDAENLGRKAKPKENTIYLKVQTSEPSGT

[2] = molecular target: T2, hOCT3 (Homo sapiens, UniProt O75751); test: Inhibition of hOCT3-mediated substrate uptake in transfected HEK293 cells; assay type: in vitro ADME; conditions: for substrate dependency, hOCT3: differences in IC50 values across substrates: metformin, mIBG, MPP+; for In vivo DDI study recommendation, hOCT3: FDA-recommended criteria
T2 construct: expressed in transfected cells
T2 sequence (O75751 1-556): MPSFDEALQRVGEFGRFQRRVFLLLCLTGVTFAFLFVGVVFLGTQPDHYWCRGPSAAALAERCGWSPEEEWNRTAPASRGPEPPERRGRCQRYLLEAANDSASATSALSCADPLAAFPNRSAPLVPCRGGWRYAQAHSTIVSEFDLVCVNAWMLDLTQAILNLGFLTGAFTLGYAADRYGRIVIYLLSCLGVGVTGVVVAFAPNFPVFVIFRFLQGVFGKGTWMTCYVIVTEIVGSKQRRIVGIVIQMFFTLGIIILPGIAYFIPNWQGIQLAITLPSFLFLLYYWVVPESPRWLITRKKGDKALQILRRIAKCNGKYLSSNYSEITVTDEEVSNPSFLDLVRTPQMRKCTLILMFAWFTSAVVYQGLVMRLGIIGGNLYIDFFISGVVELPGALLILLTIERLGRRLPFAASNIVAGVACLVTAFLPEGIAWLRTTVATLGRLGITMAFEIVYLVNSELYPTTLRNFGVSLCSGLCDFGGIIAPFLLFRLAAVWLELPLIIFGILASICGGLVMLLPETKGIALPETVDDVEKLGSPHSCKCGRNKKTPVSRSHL

[3] = molecular target: T3, hMATE1 (Homo sapiens, UniProt Q96FL8); test: Inhibition of hMATE1-mediated substrate uptake in transfected HEK293 cells (pH 8.0); assay type: in vitro ADME; conditions: for In vivo DDI study recommendation, hMATE1: FDA-recommended criteria
T3 construct: expressed in transfected cells
T3 sequence (Q96FL8 1-570): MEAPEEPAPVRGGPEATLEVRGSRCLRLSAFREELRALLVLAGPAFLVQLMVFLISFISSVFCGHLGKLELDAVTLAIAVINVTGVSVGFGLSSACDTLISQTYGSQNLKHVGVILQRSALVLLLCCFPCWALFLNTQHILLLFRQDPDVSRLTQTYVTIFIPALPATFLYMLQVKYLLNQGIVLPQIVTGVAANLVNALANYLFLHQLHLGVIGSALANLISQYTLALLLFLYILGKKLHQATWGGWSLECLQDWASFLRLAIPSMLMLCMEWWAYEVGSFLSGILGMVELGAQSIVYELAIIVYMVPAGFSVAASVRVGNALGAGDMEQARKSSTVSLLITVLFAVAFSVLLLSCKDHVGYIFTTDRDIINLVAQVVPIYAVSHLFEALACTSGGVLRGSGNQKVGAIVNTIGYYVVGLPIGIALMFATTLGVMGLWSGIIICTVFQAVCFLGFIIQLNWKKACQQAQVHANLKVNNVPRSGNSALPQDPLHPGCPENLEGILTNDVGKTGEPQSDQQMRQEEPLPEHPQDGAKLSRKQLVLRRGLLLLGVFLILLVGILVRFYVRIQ

[4] = molecular target: T4, hMATE2-K (Homo sapiens, UniProt Q86VL8); test: Inhibition of hMATE2-K-mediated substrate uptake in transfected HEK293 cells (pH 8.0); assay type: in vitro ADME; conditions: for substrate dependency, hMATE2-K: more potent with metformin than with mIBG: IC50 ratio mIBG/metformin; for IC50: HEK293, 2 min, 37 °C, mean ± SD; for In vivo DDI study recommendation, hMATE2-K: FDA-recommended criteria
T4 construct: expressed in transfected cells
T4 sequence (Q86VL8 1-566 isoform Q86VL8-3): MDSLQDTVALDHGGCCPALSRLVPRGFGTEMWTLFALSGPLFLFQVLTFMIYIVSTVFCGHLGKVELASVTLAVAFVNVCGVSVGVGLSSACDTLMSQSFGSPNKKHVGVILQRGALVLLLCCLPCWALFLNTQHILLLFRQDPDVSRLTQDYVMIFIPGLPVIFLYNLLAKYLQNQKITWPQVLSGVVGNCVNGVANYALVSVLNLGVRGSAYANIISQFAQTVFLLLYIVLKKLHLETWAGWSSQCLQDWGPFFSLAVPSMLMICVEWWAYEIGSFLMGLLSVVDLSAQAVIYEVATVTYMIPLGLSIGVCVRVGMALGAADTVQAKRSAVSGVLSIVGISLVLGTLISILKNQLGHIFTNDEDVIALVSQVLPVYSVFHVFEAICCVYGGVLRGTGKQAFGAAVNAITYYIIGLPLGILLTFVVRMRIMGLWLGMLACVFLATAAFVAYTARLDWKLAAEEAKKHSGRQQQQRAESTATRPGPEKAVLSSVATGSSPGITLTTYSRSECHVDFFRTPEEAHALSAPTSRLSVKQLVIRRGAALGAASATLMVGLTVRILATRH

[5] = molecular target: T5, hOCT2 (Homo sapiens, UniProt O15244); test: Inhibition of hOCT2-mediated substrate uptake in transfected HEK293 cells; assay type: in vitro ADME; parameters: expressed in transfected cells; conditions: for In vivo DDI study recommendation, hOCT2: FDA-recommended criteria
T5 sequence (O15244 1-555): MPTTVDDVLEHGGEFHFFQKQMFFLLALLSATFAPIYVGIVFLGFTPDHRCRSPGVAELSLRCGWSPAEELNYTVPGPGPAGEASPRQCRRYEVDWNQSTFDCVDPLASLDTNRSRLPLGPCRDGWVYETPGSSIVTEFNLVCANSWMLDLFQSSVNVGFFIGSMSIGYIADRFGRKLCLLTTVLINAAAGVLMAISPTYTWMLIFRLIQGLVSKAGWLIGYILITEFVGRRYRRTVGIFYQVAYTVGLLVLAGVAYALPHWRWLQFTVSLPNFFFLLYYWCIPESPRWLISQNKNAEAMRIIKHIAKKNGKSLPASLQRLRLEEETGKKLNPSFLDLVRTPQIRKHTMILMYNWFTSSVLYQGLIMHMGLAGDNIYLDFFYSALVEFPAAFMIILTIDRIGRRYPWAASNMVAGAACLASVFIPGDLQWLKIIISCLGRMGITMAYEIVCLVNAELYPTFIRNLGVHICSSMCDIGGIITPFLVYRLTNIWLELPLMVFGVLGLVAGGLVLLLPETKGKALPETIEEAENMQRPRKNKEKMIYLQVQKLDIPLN

[6] = molecular target: T1, hOCT1; parameters: method as in PMID 32487736; conditions: substrate mIBG; HEK293; read-out: IC50, hOCT1-mediated mIBG uptake; cited from earlier work
[7] = HEK293, 20 µM inhibitor, 1 µM mIBG, 2 min, 37 °C

## COc1cc(N2CCC(N3CCN(C)CC3)CC2)ccc1Nc1ncc(Cl)c(Nc2ccccc2P(C)(C)=O)n1 [Brigatinib]
[1]
  IC50: 1.12 ± 0.04 µM
  substrate dependency, hOCT1: more potent with metformin than with MPP+: ~22 fold
  substrate dependency, hOCT1: more potent with metformin than with mIBG: approximately 15 fold
[1]; [7]
  inhibition at 20 µM: > 50%
[1]; substrate 1 µM [3H]MPP+, HEK293, 2 min, 37 °C, mean ± SD, read-out: IC50, hOCT1-mediated MPP+ uptake
  IC50: 25.1 ± 1.2 µM
[1]; substrate 1 µM mIBG, HEK293, 2 min, 37 °C, mean ± SD, read-out: IC50, hOCT1-mediated mIBG uptake
  IC50: 17.1 ± 0.6 µM
[1]; substrate MPP+
  In vivo DDI study recommendation, hOCT1: No
[1]; substrate mIBG
  In vivo DDI study recommendation, hOCT1: No
[1]; substrate metformin
  In vivo DDI study recommendation, hOCT1: Yes
[2]
  IC50: 0.85 ± 0.07 µM
  substrate dependency, hOCT3: differences in IC50 values across substrates: up to 3 fold
[2]; HEK293, read-out: inhibition of mIBG uptake by hOCT3
  inhibition at 20 µM: > 80%
[2]; substrate 1 µM [3H]MPP+, HEK293, 2 min, 37 °C, mean ± SD, read-out: IC50, hOCT3-mediated MPP+ uptake
  IC50: 2.54 ± 0.14 µM
[2]; substrate 1 µM mIBG, HEK293, 2 min, 37 °C, mean ± SD, read-out: IC50, hOCT3-mediated mIBG uptake
  IC50: 1.2 ± 0.03 µM
[2]; substrate MPP+
  In vivo DDI study recommendation, hOCT3: Yes
[2]; substrate mIBG
  In vivo DDI study recommendation, hOCT3: Yes
[2]; substrate metformin
  In vivo DDI study recommendation, hOCT3: Yes
[3]; [7]
  inhibition at 20 µM: > 80%
[3]; IC50, hMATE1-mediated MPP+ uptake, substrate 1 µM [3H]MPP+, HEK293, 2 min, 37 °C, mean ± SD
  IC50: 2.03 ± 0.24 µM
[3]; IC50, hMATE1-mediated [14C]metformin uptake, Coincubation, coincubation (no preincubation), preincubation study, 8.9 µM [14C]metformin, 2 min uptake
  IC50: 1.41 ± 0.06 µM
[3]; IC50, hMATE1-mediated [14C]metformin uptake, Preincubation, 30-min preincubation with inhibitor at 37 °C, 8.9 µM [14C]metformin, 2 min uptake
  IC50: 0.97 ± 0.09 µM
[3]; IC50, hMATE1-mediated mIBG uptake, substrate 1 µM mIBG, HEK293, 2 min, 37 °C, mean ± SD
  IC50: 1.93 ± 0.15 µM
[3]; IC50, hMATE1-mediated metformin uptake, substrate 8.9 µM [14C]metformin, HEK293, 2 min, 37 °C, mean ± SD
  IC50: 1.67 ± 0.14 µM
[3]; metformin, mIBG, MPP+
  substrate dependency, hMATE1: differences in IC50 values across substrates: below two-fold
[3]; substrate MPP+
  In vivo DDI study recommendation, hMATE1: Yes
[3]; substrate mIBG
  In vivo DDI study recommendation, hMATE1: Yes
[3]; substrate metformin
  In vivo DDI study recommendation, hMATE1: Yes
[4]
  substrate dependency, hMATE2-K: more potent with metformin than with mIBG: approximately 4 fold
[4]; substrate 1 µM [3H]MPP+, read-out: IC50, hMATE2-K-mediated MPP+ uptake
  IC50: > 300 µM
[4]; substrate 8.9 µM [14C]metformin, read-out: IC50, hMATE2-K-mediated metformin uptake
  IC50: 38.3 ± 1.7 µM
[4]; substrate MPP+
  In vivo DDI study recommendation, hMATE2-K: No
[4]; substrate mIBG
  In vivo DDI study recommendation, hMATE2-K: No
[4]; substrate metformin
  In vivo DDI study recommendation, hMATE2-K: No
[5]; 30-min preincubation with inhibitor at 37 °C, 8.9 µM [14C]metformin, 2 min uptake, read-out: IC50, hOCT2-mediated [14C]metformin uptake, Preincubation
  IC50: 15.5 ± 0.5 µM
[5]; coincubation (no preincubation), preincubation study, 8.9 µM [14C]metformin, 2 min uptake, read-out: IC50, hOCT2-mediated [14C]metformin uptake, Coincubation
  IC50: 36 ± 1.1 µM
[5]; substrate 1 µM [3H]MPP+, HEK293, 2 min, 37 °C, mean ± SD, read-out: IC50, hOCT2-mediated MPP+ uptake
  IC50: > 300 µM
[5]; substrate 1 µM mIBG, HEK293, 2 min, 37 °C, mean ± SD, read-out: IC50, hOCT2-mediated mIBG uptake
  IC50: > 100 µM
[5]; substrate 8.9 µM [14C]metformin, HEK293, 2 min, 37 °C, mean ± SD, read-out: IC50, hOCT2-mediated metformin uptake
  IC50: 30.2 ± 1.5 µM
[5]; substrate MPP+
  In vivo DDI study recommendation, hOCT2: No
[5]; substrate mIBG
  In vivo DDI study recommendation, hOCT2: No
[5]; substrate metformin
  In vivo DDI study recommendation, hOCT2: No
[5]; substrates metformin, mIBG, MPP+
  inhibition of hOCT2 (in words): not a strong inhibitor

## C[C@@H](Oc1cc(-c2cnn(C3CCNCC3)c2)cnc1N)c1c(Cl)ccc(F)c1Cl [Crizotinib]
[1]
  substrate dependency, hOCT1: more potent with metformin than with MPP+: ~21 fold
  substrate dependency, hOCT1: more potent with metformin than with mIBG: approximately 8 fold
[1]; substrate 8.9 µM [14C]metformin, HEK293, 2 min, 37 °C, mean ± SD, read-out: IC50, hOCT1-mediated metformin uptake
  IC50: 4.98 ± 0.15 µM
[1]; substrate MPP+
  In vivo DDI study recommendation, hOCT1: No
[1]; substrate mIBG
  In vivo DDI study recommendation, hOCT1: No
[1]; substrate metformin
  In vivo DDI study recommendation, hOCT1: No
[2]
  substrate dependency, hOCT3: differences in IC50 values across substrates: ≤ 5 fold
[2]; substrate MPP+
  In vivo DDI study recommendation, hOCT3: No
[2]; substrate mIBG
  In vivo DDI study recommendation, hOCT3: No
[2]; substrate metformin
  In vivo DDI study recommendation, hOCT3: No
[3]; substrate MPP+
  In vivo DDI study recommendation, hMATE1: No
[3]; substrate mIBG
  In vivo DDI study recommendation, hMATE1: No
[3]; substrate metformin
  In vivo DDI study recommendation, hMATE1: No
[4]; IC50 ratio MPP+/metformin
  substrate dependency, hMATE2-K: more potent with metformin than with MPP+: ~12 fold
[4]
  substrate dependency, hMATE2-K: more potent with metformin than with mIBG: approximately 5 fold
[4]; substrate MPP+
  In vivo DDI study recommendation, hMATE2-K: No
[4]; substrate mIBG
  In vivo DDI study recommendation, hMATE2-K: No
[4]; substrate metformin
  In vivo DDI study recommendation, hMATE2-K: No
[6]
  IC50: 40.3 ± 5.5 µM
[5]; IC50 ratio MPP+/metformin
  substrate dependency, hOCT2: more potent with metformin than with MPP+: ~16 fold
[5]; IC50 ratio mIBG/metformin
  substrate dependency, hOCT2: more potent with metformin than with mIBG: approximately 2 fold
[5]; substrate MPP+
  In vivo DDI study recommendation, hOCT2: No
[5]; substrate mIBG
  In vivo DDI study recommendation, hOCT2: No
[5]; substrate metformin
  In vivo DDI study recommendation, hOCT2: No
